From ChEMBL document CHEMBL1201862, “PubChem BioAssay data set” (2004)
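Cultured in 96-well plates, cells were exposed to test compound for 48 hours across five concentrations. GI50 is the concentration that inhibits growth by half.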 Active and inactive are the calls of the source. Rule as the data show it: active = GI50 up to about 1.1 µM and inactive = higher.

Key:
Experiment in all cases: NCI anticancer screen, dose series, 48 h
UACC-62 = system: UACC-62
RXF 393 = system: RXF 393
OVCAR-8 = system: OVCAR-8
OVCAR-4 = system: OVCAR-4
SK-MEL-5 = system: SK-MEL-5
NCI-H226 = system: NCI-H226
MCF7 = system: MCF7
SW-620 = system: SW-620
CCRF-CEM = system: CCRF-CEM
U-251 = system: U-251
HOP-62 = system: HOP-62
UACC-257 = system: UACC-257
PC-3 = system: PC-3
UO-31 = system: UO-31
COLO 205 = system: COLO 205
NCI-H460 = system: NCI-H460
SF-539 = system: SF-539
CAKI-1 = system: CAKI-1
IGROV-1 = system: IGROV-1
SF-295 = system: SF-295

Structure (SMILES) | GI50 (UACC-62) | GI50 (RXF 393) | GI50 (OVCAR-8) | GI50 (OVCAR-4) | GI50 (SK-MEL-5) | GI50 (NCI-H226) | GI50 (MCF7) | GI50 (SW-620) | GI50 (CCRF-CEM) | GI50 (U-251) | GI50 (HOP-62) | GI50 (UACC-257) | GI50 (PC-3) | GI50 (UO-31) | GI50 (COLO 205) | GI50 (NCI-H460) | GI50 (SF-539) | GI50 (CAKI-1) | GI50 (IGROV-1) | GI50 (SF-295)
CC(=O)Oc1c(C)c2c(c3ccccc13)OC(C)(C)C2 | 16.3 µM (inactive) | 20.7 µM (inactive) | 16.8 µM (inactive) | 16.1 µM (inactive) | 10.5 µM (inactive) | 22 µM (inactive) | 17.5 µM (inactive) | 19.8 µM (inactive) | 24.7 µM (inactive) | 18.6 µM (inactive) | 20.1 µM (inactive) | 12.2 µM (inactive) | 22.6 µM (inactive) | 18.2 µM (inactive) | 20.3 µM (inactive) | 19.2 µM (inactive) | 20.4 µM (inactive) | 24.2 µM (inactive) | 17.2 µM (inactive) | 17 µM (inactive)
C[C@]12CC[C@H](O)CC1=CC[C@@H]1[C@@H]2CC[C@]2(C)NC(=O)/C(=C\c3ccccc3)C[C@@H]12 | 18.3 µM (inactive) | 13.5 µM (inactive) | 21.1 µM (inactive) | 5.64 µM (inactive) | 12.9 µM (inactive) | 14.9 µM (inactive) | 14.4 µM (inactive) | 16.9 µM (inactive) | 17 µM (inactive) | 14.1 µM (inactive) | 13.5 µM (inactive) | 23.3 µM (inactive) | 13.3 µM (inactive) | 12.9 µM (inactive) | 16 µM (inactive) | 23.9 µM (inactive) | 14.6 µM (inactive) | 25.2 µM (inactive) | 15.9 µM (inactive) | 16.5 µM (inactive)
COc1ccc2[nH]c3c(C)c4c(c(C)c3c2c1)CN(C)C=C4 | 3.3 µM (inactive) | 7.21 µM (inactive) | 0.309 µM (active) | 3.95 µM (inactive) | 1.98 µM (inactive) | 0.267 µM (active) | 4.53 µM (inactive) | 1.35 µM (inactive) | 3.76 µM (inactive) | 0.219 µM (active) | 0.679 µM (active) | 2.68 µM (inactive) | 11.5 µM (inactive) | 24.5 µM (inactive) | 1.29 µM (inactive) | 1.32 µM (inactive) | 0.366 µM (active) | 9.23 µM (inactive) | 1.82 µM (inactive) | 0.293 µM (active)
C(=N/NC1=NCCN1)/c1c2ccccc2c(/C=N\NC2=NCCN2)c2ccccc12 | 0.0902 µM (active) | 0.155 µM (active) | 0.252 µM (active) | 0.302 µM (active) | 0.26 µM (active) | 0.0966 µM (active) | 0.0568 µM (active) | 0.113 µM (active) | 0.0408 µM (active) | 0.061 µM (active) | 0.0966 µM (active) | 0.344 µM (active) | 0.0687 µM (active) | 9.44 µM (inactive) | 0.054 µM (active) | 0.0279 µM (active) | 0.1 µM (active) | 0.526 µM (active) | 0.211 µM (active) | 0.383 µM (active)
COC1OC(CO)C(O)C(OC(=O)c2cc(O)c(O)c(O)c2)C1OC(=O)c1cc(O)c(O)c(O)c1 (stereo not given) | > 10 µM (inactive) | > 100 µM (inactive) | > 100 µM (inactive) | 23.1 µM (inactive) | 36.7 µM (inactive) | > 100 µM (inactive) | > 100 µM (inactive) | 41.6 µM (inactive) | 42.7 µM (inactive) | > 100 µM (inactive) | 91 µM (inactive) | 95.3 µM (inactive) | 95.5 µM (inactive) | > 100 µM (inactive) | 59.8 µM (inactive) | 69.5 µM (inactive) | 83.6 µM (inactive) | 48.3 µM (inactive) | > 100 µM (inactive) | 20.2 µM (inactive)
N#C[BH2-][n+]1cn(C2CC(OP(=O)(O)OCC3OC(n4ccc(N)nc4=O)CC3O)C(CO)O2)c2nc(N)[nH]c(=O)c21 (stereo not given) | > 100 µM (inactive) | > 100 µM (inactive) | > 100 µM (inactive) | > 100 µM (inactive) | > 100 µM (inactive) | > 100 µM (inactive) | > 100 µM (inactive) | > 100 µM (inactive) | > 100 µM (inactive) | > 100 µM (inactive) | > 100 µM (inactive) | > 100 µM (inactive) | > 100 µM (inactive) | > 100 µM (inactive) | > 100 µM (inactive) | > 100 µM (inactive) | > 100 µM (inactive) | > 100 µM (inactive) | > 100 µM (inactive) | > 100 µM (inactive)
Cc1ccnc2nc(-c3ccc(F)cc3)cc(O)c12 | 16 µM (inactive) | > 82.8 µM (inactive) | > 100 µM (inactive) | 77.6 µM (inactive) | 22.6 µM (inactive) | 64 µM (inactive) | 24.5 µM (inactive) | 33.7 µM (inactive) | 75.9 µM (inactive) | 38 µM (inactive) | 68.7 µM (inactive) | > 92 µM (inactive) | > 80.4 µM (inactive) | > 70.5 µM (inactive) | 19.5 µM (inactive) | 13.2 µM (inactive) | 57.3 µM (inactive) | 36.2 µM (inactive) | 26.4 µM (inactive) | 86.3 µM (inactive)
CCOC(=O)c1c2cccccc-2nc1Nc1cccc2c(C)ccnc12 | 9.77 µM (inactive) | > 10 µM (inactive) | > 10 µM (inactive) | 4.82 µM (inactive) | > 10 µM (inactive) | > 10 µM (inactive) | 8.24 µM (inactive) | > 10 µM (inactive) | 4.88 µM (inactive) | > 10 µM (inactive) | > 10 µM (inactive) | 9.2 µM (inactive) | 5.75 µM (inactive) | 9.16 µM (inactive) | 7.43 µM (inactive) | 7.31 µM (inactive) | > 10 µM (inactive) | > 10 µM (inactive) | 4.82 µM (inactive) | > 10 µM (inactive)
c1ccc(COC2C3COC(O3)C(OCc3ccccc3)C2OCc2ccccc2)cc1 (stereo not given) | > 100 µM (inactive) | 45.4 µM (inactive) | 60.7 µM (inactive) | 49.1 µM (inactive) | 34.4 µM (inactive) | 60.7 µM (inactive) | 39.1 µM (inactive) | 40.1 µM (inactive) | 11.2 µM (inactive) | > 100 µM (inactive) | 71.3 µM (inactive) | 71.1 µM (inactive) | 35.2 µM (inactive) | 56.2 µM (inactive) | 41 µM (inactive) | 22 µM (inactive) | > 100 µM (inactive) | > 100 µM (inactive) | 79.1 µM (inactive) | 94.4 µM (inactive)
Cc1cccc(Nc2nc3ccccc3nc2NS(=O)(=O)c2ccc(N)cc2)c1 | 38.4 µM (inactive) | 18.5 µM (inactive) | 39.6 µM (inactive) | 10 µM (inactive) | 35.5 µM (inactive) | 60.4 µM (inactive) | 24.4 µM (inactive) | 17.6 µM (inactive) | 15.2 µM (inactive) | 20.7 µM (inactive) | 25.7 µM (inactive) | 41.4 µM (inactive) | 29.6 µM (inactive) | 16.2 µM (inactive) | 21.1 µM (inactive) | 32.5 µM (inactive) | 19.1 µM (inactive) | 30.7 µM (inactive) | 33 µM (inactive) | 34.8 µM (inactive)
